Assay results reported in US10793557B2, “Sting agonist compounds” (Merck Sharp & Dohme Corp., priority 2018, dated 2020).

Columns and labels:
[1] = test system: secretion of interferon-beta from THP1 cells; assay: IFN-β secretion in THP1 cell culture (5 h); format: cell-based; settings: Homo sapiens, THP-1, 5 h, 30 uM cGAMP = 100%; for activation at 30 µM: compound at 30 μM, read-out: % Effect at 30 μM relative to 2′3′-cGAMP; for activation at 3 µM: compound at 3 uM, read-out: % Effect relative to 2′3′-cGAMP (@ 3 uM)
Procedure, shortened: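 IFN-β in supernatant measured by AlphaLISA after a 5 h, 37 °C incubation of THP1 cells with compound (10 concentrations, 30000 down to 1.5 nM, 0.3% DMSO) in low-serum RPMI. Values scaled between DMSO and 30 uM cGAMP controls; 4-parameter curve fit yields EC50.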

full-length HAQ STING = target: T1, full-length HAQ STING (Homo sapiens, UniProt Q86WV6, G230A/H232R/R293Q/R71H); assay: 3H-cGAMP filtration binding assay (HAQ STING); settings: competition with tritiated cGAMP, HAQ STING membrane
T1 construct: AviTag (after GG linker) (C); HRV3C cleavage site (after GS linker) (C); HIS8 (C); made in house; host or cells: Trichoplusia ni (Hi-Five) insect cells infected with baculovirus (virus generated and amplified in Sf21 cells); used as a washed membrane preparation
T1 sequence (Q86WV6 with tags, fused parts or gaps R71H/G230A/H232R/R293Q): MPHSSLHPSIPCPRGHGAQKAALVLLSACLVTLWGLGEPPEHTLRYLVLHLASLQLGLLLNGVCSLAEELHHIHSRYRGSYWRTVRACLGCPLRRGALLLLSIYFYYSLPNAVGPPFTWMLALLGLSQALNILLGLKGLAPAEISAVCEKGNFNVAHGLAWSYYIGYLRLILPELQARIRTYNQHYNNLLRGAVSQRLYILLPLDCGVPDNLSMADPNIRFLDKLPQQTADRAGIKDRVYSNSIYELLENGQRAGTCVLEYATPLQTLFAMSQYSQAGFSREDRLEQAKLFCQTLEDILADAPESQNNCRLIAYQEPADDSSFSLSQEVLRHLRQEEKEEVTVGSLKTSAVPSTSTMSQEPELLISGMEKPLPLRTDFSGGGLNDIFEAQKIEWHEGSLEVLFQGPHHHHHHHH
Procedure, shortened: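 Hi-Five (T. ni) membranes overexpressing the STING variant (2.2 ug/ml working) preincubated with compound 60 min at RT in PBS, then [3H]cGAMP (8 nM working stock) added for 60 min at RT. Bound radioactivity captured on GF/B filters and counted by scintillation; EC50 from 4-parameter fit of control-normalized activity.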

full-length WT STING = target: T2, full-length WT STING (Homo sapiens, UniProt Q86WV6, H232R); assay: 3H-cGAMP filtration binding assay (WT STING); settings: for EC50: competition with tritiated cGAMP, WT STING membrane
T2 construct: AviTag (after gg linker) (C); HRV3C cleavage site (after gs linker) (C); HIS8 (C); made in house; host or cells: Trichoplusia ni (Hi-Five) insect cells infected with baculovirus (virus generated and amplified in Sf21 cells); used as a washed membrane preparation
T2 sequence (Q86WV6 with tags, fused parts or gaps H232R): as the sequence (Q86WV6 with tags, fused parts or gaps R71H/G230A/H232R/R293Q) above, with H71R, A230G, Q293R counted along it
Procedure, shortened: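 EC50 values come from 4-parameter fits of remaining filter-bound tritium versus log concentration (10-point, 1:3 dilution). Insect-cell membranes carrying full-length WT STING were incubated 60 min at RT with compound and tritiated cGAMP (16 nM working stock) before filtration.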

For `COc1cc2sc(C(=O)C[C@H](C)C(=O)O)cc2c(F)c1OCCCOc1c(OC)cc2sc(C(=O)C[C@H](C)C(=O)O)cc2c1Cl` [Example 122, (S)-4-(5-(3-((2-((S)-3-carboxybutanoyl)-4-chloro-6-methoxybenzo[b]thiophen-5-yl)oxy)propoxy)-4-fluoro-6-methoxybenzo[b]thiophen-2-yl)-2-methyl-4-oxobutanoic acid], which activation at 30 µM [1] is on record?
Its activation at 30 µM is 79%.

What about the EC50 (full-length HAQ STING) of the same compound?
The EC50 was 1 nM.

What about the EC50 (full-length WT STING) of the same compound?
The EC50 was 1 nM.

For `COc1cc2sc(C(=O)C[C@H](C)C(=O)O)cc2cc1CCCOc1c(OC)cc2sc(CC[C@H](C)C(=O)O)cc2c1F` [Example 100, (S)-4-(5-(3-((2-((S)-3-carboxybutyl)-4-fluoro-6-methoxybenzo[b]thiophen-5-yl)oxy)propyl)-6-methoxybenzo[b]thiophen-2-yl)-2-methyl-4-oxobutanoic acid], which activation at 3 µM [1] is on record?
Its activation at 3 µM is 33%.

What about the EC50 (full-length HAQ STING) of the same compound?
The EC50 was 277 nM.

What about the EC50 (full-length WT STING) of the same compound?
The EC50 was 2240 nM.

Which activation at 30 µM [1] does the source give for `COc1cc2sc(C(=O)CCC(=O)O)cc2c(F)c1OCCCCCOc1c(OC)cc2sc(C(=O)[C@@H]3CC[C@H]3C(=O)O)cc2c1F` (stereo in doubt) [Example 119, 2-(5-((5-((2-(3-carboxypropanoyl)-4-fluoro-6-methoxybenzo[b]thiophen-5-yl)oxy)pentyl)oxy)-4-fluoro-6-methoxybenzo[b]thiophene-2-carbonyl)cyclo-butanecarboxylic acid] here?
Its activation at 30 µM is 13%.

And the EC50 (full-length HAQ STING)?
The EC50 was 1800 nM.

And the inhibition at 20 µM (full-length WT STING; at 20,000 nM compound)?
Its inhibition at 20 µM is 32%.

With `COc1cc2sc(C(=O)C[C@H](C)C(=O)O)cc2c(F)c1CCCOc1c(OC)cc2sc(C(=O)[C@@H]3CCC3C(=O)O)cc2c1F` (stereo partly drawn) [Example 107, trans-2-(5-(3-(2-((S)-3-carboxybutanoyl)-4-fluoro-6-methoxybenzo[b]thiophen-5-yl)propoxy)-4-fluoro-6-methoxybenzo[b]thiophene-2-carbonyl)cyclobutane carboxylic acid] as the compound, how does the activation at 30 µM [1] read?
The activation at 30 µM was 108%.

And the EC50 (full-length HAQ STING)?
The EC50 was 1 nM.

What about the EC50 (full-length WT STING) of the same compound?
The EC50 was 2 nM.

How did the activation at 30 µM [1] turn out when `COc1cc2sc(C(=O)CCC(=O)O)cc2nc1CCCOc1c(OC)cc2sc(C(=O)C[C@H](C)C(=O)O)cc2c1F` [Example 174, (S)-4-(5-(3-(2-(3-carboxypropanoyl)-6-methoxythieno[3,2-b]pyridin-5-yl)propoxy)-4-fluoro-6-methoxybenzo[b]thiophen-2-yl)-2-methyl-4-oxobutanoic acid] was run?
The activation at 30 µM was 88%.

What about the EC50 (full-length HAQ STING) of the same compound?
The EC50 was 1 nM.

What about the EC50 (full-length WT STING) of the same compound?
The EC50 was 1 nM.

What does the source list for `COc1cc2sc(C(=O)CCC(=O)O)nc2cc1OCCc1nc2cc(C(=O)CCC(=O)O)sc2cc1OC` [Example 9, 4-(5-(2-((2-(3-carboxypropanoyl)-6-methoxybenzo[d]thiazol-5-yl)oxy)ethyl)-6-methoxythieno[3,2-b]pyridin-2-yl)-4-oxobutanoic acid]?
activation at 30 µM [1]: 48%; EC50 (full-length HAQ STING): 116 nM; EC50 (full-length WT STING): 322 nM

Which activation at 30 µM [1] does the source give for `COc1cc2sc(C(=O)C[C@@H](C)C(=O)O)cc2cc1OCCOc1c(OC)cc2sc(C(=O)C[C@H](C)C(=O)O)cc2c1F` [Example 66, (R)-4-(5-(2-((2-((S)-3-carboxybutanoyl)-4-fluoro-6-methoxybenzo[b]thiophen-5-yl)oxy)ethoxy)-6-methoxybenzo [b]thiophen-2-yl)-2-methyl-4-oxobutanoic acid] here?
Its activation at 30 µM is 103%.

What about the EC50 (full-length HAQ STING) of the same compound?
The EC50 was 4 nM.

And the EC50 (full-length WT STING)?
Its EC50 is 20 nM.

Which results are given for `COc1cc2sc(C(=O)C[C@H](C)C(=O)O)cc2c(Cl)c1OCCOc1c(OC)cc2sc(C(=O)C[C@H](C)C(=O)O)cc2c1Cl` [Example 153, (2S,2′S)-4,4′-((ethane-1,2-diylbis(oxy))bis(4-chloro-6-methoxybenzo[b]thiophene-5,2-diyl))bis(2-methyl-4-oxobutanoic acid)]?
activation at 3 µM [1]: 137%; EC50 (full-length HAQ STING): 3 nM; EC50 (full-length WT STING): 10 nM

Which activation at 30 µM [1] does the source give for `COc1cc2sc(C(=O)C[C@H](C)C(=O)O)cc2cc1OCCCOc1c(OC)cc2sc(CC[C@H](C)C(=O)O)cc2c1F` [Example 169, (S)-4-(5-(3-((2-((S)-3-carboxybutyl)-4-fluoro-6-methoxybenzo[b]thiophen-5-yl)oxy)propoxy)-6-methoxybenzo[b]thiophen-2-yl)-2-methyl-4-oxobutanoic acid] here?
The activation at 30 µM was 64%.

And the EC50 (full-length HAQ STING)?
Its EC50 is 1 nM.

And the EC50 (full-length WT STING)?
Its EC50 is 18 nM.

With `COc1cc2cc(C(=O)C[C@H](C)C(=O)O)sc2cc1OCCOc1ccc2sc(C(=O)CCC(=O)O)cc2c1` [Example 53, (S)-4-(6-(2-((2-(3-carboxypropanoyl)benzo[b]thiophen-5-yl)oxy)ethoxy)-5-methoxybenzo[b]thiophen-2-yl)-2-methyl-4-oxobutanoic acid] as the compound, how does the activation at 30 µM [1] read?
The activation at 30 µM was 23%.

What about the EC50 (full-length HAQ STING) of the same compound?
The EC50 was 146 nM.

What about the EC50 (full-length WT STING) of the same compound?
The EC50 was 713 nM.

What does the source list for `COc1cc2sc(C(=O)C[C@H](C)C(=O)O)cc2cc1NCCCOc1cc2cc(C(=O)C[C@H](C)C(=O)O)sc2cc1OC` [Example 74, (S)-4-(5-(3-((2-((S)-3-carboxybutanoyl)-6-methoxybenzo[b]thiophen-5-yl)amino)propoxy)-6-methoxybenzo[b]thiophen-2-yl)-2-methyl-4-oxobutanoic acid]?
activation at 30 µM [1]: 16%; EC50 (full-length HAQ STING): 4 nM; EC50 (full-length WT STING): 6 nM

Which results are given for `COc1cc2sc(CC[C@H](C)C(=O)O)cc2cc1OCCCOc1c(OC)cc2sc(C(=O)C[C@H](C)C(=O)O)cc2c1Cl` [Example 145, (S)-4-(5-(3-((2-((S)-3-carboxybutyl)-6-methoxybenzo[b]thiophen-5-yl)oxy)propoxy)-4-chloro-6-methoxybenzo[b]thiophen-2-yl)-2-methyl-4-oxobutanoic acid]?
activation at 3 µM [1]: 59%; EC50 (full-length HAQ STING): 143 nM; inhibition at 2 µM (full-length WT STING; at 2,000 nM compound): 47%

Which activation at 30 µM [1] does the source give for `C[C@@H](CC(=O)c1cc2cc(OCCCOc3cc4cc(C(=O)C[C@H](C)C(=O)O)sc4cc3OC(F)F)c(OC(F)F)cc2s1)C(=O)O` [Example 79, (2S,2′S)-4,4′-(1,3-propanediylbis{oxy[6-(difluoromethoxy)-1-benzothiene-5,2-diyl]})bis(2-methyl-4-oxobutanoic acid)] here?
The activation at 30 µM was 49%.

What about the EC50 (full-length HAQ STING) of the same compound?
The EC50 was 5 nM.

What about the EC50 (full-length WT STING) of the same compound?
The EC50 was 12 nM.

What does the source list for `COc1cc2sc(C(=O)CCC(=O)O)cc2nc1OCCCOc1c(OC)cc2sc(C(=O)CCC(=O)O)cc2c1F` [Example 82, 4-(5-(3-((2-(3-carboxypropanoyl)-4-fluoro-6-methoxybenzo[b]thiophen-5-yl)oxy)propoxy)-6-methoxythieno[3,2-b]pyridin-2-yl)-4-oxobutanoic acid]?
activation at 30 µM [1]: 158%; EC50 (full-length HAQ STING): 1 nM; EC50 (full-length WT STING): 2 nM

Which activation at 30 µM [1] does the source give for `COc1cc2sc(C(=O)CCC(=O)O)cc2c(F)c1OCCCOc1cc2sc(C(=O)C[C@H](C)C(=O)O)cc2nc1OC` [Example 168, (S)-4-(6-(3-((2-(3-carboxypropanoyl)-4-fluoro-6-methoxybenzo[b]thiophen-5-yl)oxy)propoxy)-5-methoxythieno[3,2-b]pyridin-2-yl)-2-methyl-4-oxobutanoic acid] here?
The activation at 30 µM was 102%.

And the EC50 (full-length HAQ STING)?
Its EC50 is 13 nM.

What about the EC50 (full-length WT STING) of the same compound?
Its EC50 is 199 nM.

For `COc1cc2sc(C(=O)CCC(=O)O)cc2cc1OCCCOc1nc2cc(C(=O)C[C@H](C)C(=O)O)sc2cc1OC` [Example 18, (S)-4-(5-(3-((2-(3-carboxypropanoyl)-6-methoxybenzo [b]thiophen-5-yl)oxy)propoxy)-6-methoxythieno [3,2-b]pyridin-2-yl)-2-methyl-4-oxobutanoic acid], which activation at 30 µM [1] is on record?
Its activation at 30 µM is 62%.

And the EC50 (full-length HAQ STING)?
Its EC50 is 2 nM.

What about the EC50 (full-length WT STING) of the same compound?
Its EC50 is 8 nM.

How did the activation at 30 µM [1] turn out when `COc1cc2sc(C(=O)C[C@H](C)C(=O)O)cc2c(F)c1OCCCOc1c(OC)cc2sc(C(=O)C[C@H](C)C(=O)O)cc2c1Br` [Example 123, (S)-4-(5-(3-((4-bromo-2-((S)-3-carboxybutanoyl)-6-methoxybenzo[b]thiophen-5-yl)oxy)propoxy)-4-fluoro-6-methoxybenzo[b]thiophen-2-yl)-2-methyl-4-oxobutanoic acid] was run?
Its activation at 30 µM is 105%.

What about the EC50 (full-length HAQ STING) of the same compound?
Its EC50 is 1 nM.

And the EC50 (full-length WT STING)?
The EC50 was 2 nM.

What does the source list for `COc1cc2sc(C(=O)C[C@H](C)C(=O)O)cc2cc1CCCOc1c(OC)cc2sc(C(=O)C[C@@H](C)C(=O)O)cc2c1F` [Example 109, (S)-4-(5-(3-((2-((R)-3-carboxybutanoyl)-4-fluoro-6-methoxybenzo[b]thiophen-5-yl)oxy)propyl)-6-methoxybenzo[b]thiophen-2-yl)-2-methyl-4-oxobutanoic acid]?
activation at 30 µM [1]: 96%; EC50 (full-length HAQ STING): 10 nM; EC50 (full-length WT STING): 39 nM

Which results are given for `COc1cc2sc(C(=O)CCC(=O)O)cc2cc1CCCc1cc2cc(C(=O)CCC(=O)O)sc2cc1OC` [Example 25, 4,4′-(5,5′-(propane-1,3-diyl)bis(6-methoxybenzo[b]thiophene-5,2-diyl))bis(4-oxobutanoic acid)]?
activation at 30 µM [1]: 136%; EC50 (full-length HAQ STING): 6 nM; EC50 (full-length WT STING): 23 nM

Which activation at 30 µM [1] does the source give for `COc1cc2sc(C(=O)C[C@H](C)C(=O)O)cc2c(F)c1OCCCOc1cc2sc(C(=O)[C@@H]3CC[C@H]3C(=O)O)cc2c(F)c1OC` (single isomer, unassigned) [Example 96] here?
The activation at 30 µM was 43%.

And the EC50 (full-length HAQ STING)?
Its EC50 is 18 nM.

And the EC50 (full-length WT STING)?
The EC50 was 628 nM.
